The record followed here is US9643999B2 (Bristol-Myers Squibb Company, priority 2012, dated 2017).

For one experiment, the system named is HCV genotype 1a replicon. The experiment can be described thus: HCV replicon luciferase reporter assay, genotype 1a (LE_1a). Type of experiment: cell-based. The settings on record: Hepatitis C virus, 72 h, HUH-7 cells, genotype 1a H77 replicon, 3 days incubation, Renilla luciferase. An excerpt:
(§1) An HCV replicon whole cell system was established as described by Lohmann V, Korner F, Koch J, Herian U, Theilmann L, Bartenschlager R., Science 285(5424):110-3 (1999) and modified to introduce a luciferase reporter, as first described by Krieger et al (Krieger N, Lohmann V, and Bartenschlager R, J. Virol. 75(10):4614-4624 (2001)). cDNA encoding a humanized form of the Renilla luciferase gene and a linker sequence fused directly to the 3′-end of the luciferase gene were introduced into the replicon construct using an Asc1 restriction site located in core, directly upstream of the neomycin marker gene. The adaptive mutation at position 1179 (serine to isoleucine) was also introduced (Blight K J, Kolykhalov, A A, Rice, C M, Science 290(5498):1972-1974). A stable cell line constitutively expressing this HCV replicon construct was generated by first linearizing plasmid DNAs with ScaI. RNA transcripts were synthesized in vitro using the T7 MegaScript transcription kit (Ambion, Austin, Tex.) according to manufacturer's directions. In vitro transcripts of the cDNA were transfected into the human hepatoma cell line, HUH-7. […] Resulting cell lines were characterized for positive and negative strand RNA production and protein production over time.
A stable HCV replicon luciferase reporter cell line representing the genotype 1a H77 strain (Yanagi M, Purcell R H, Emerson S U, et al. Transcripts from a single full-length cDNA clone of hepatitis C virus are infectious when directly transfected into the liver of a chimpanzee. Proc Natl Acad Sci USA 1997; 94(16):8738-8743) was generated as described previously for the genotype 1b(Con1) replicon luciferase cell line. The replicon construct was modified by introducing mutations were introduced into the genes encoding the NS3 helicase domain (proline replaced by leucine at position 1496) and NS5A (serine to isoleucine at position 2204) to improve replication in cell culture.
(§2) HCV replicon luciferase assays were developed to monitor the inhibitory effects of compounds described in the disclosure on HCV genotypes 1a and 1b viral replication. HUH-7 cells, constitutively expressing the HCV replicon, were grown in Dulbecco's Modified Eagle Media (DMEM) (Gibco-BRL) containing 10% Fetal calf serum (FCS) (Sigma) and 1 mg/mL G418 (Gibco-BRL). Compounds were serially diluted 3 folds in DMSO for a twenty-point titration and subsequently transferred to sterile 384-well tissue-culture treated plates (Corning cat #3571). The plates were then seeded with 50 μL of cells at a density of 3.0×10^3 cells/well in DMEM containing 4% FCS (final DMSO concentration at 0.5%). After 3 days incubation at 37° C., cells were analyzed for Renilla Luciferase activity using the EnduRen as substrate (Promega cat #E6485). The EnduRen substrate was diluted in DMEM and then added to the plates to a final concentration of 7.5 μM. The plates were incubated for 2 hrs at 37° C. and then read immediately for 30 seconds with Viewlux Imager (PerkinElmer) using a luminescence program. To assess cytotoxicity of compounds, CC50 values were generated by multiplexing the EnduRen-containing plates with Cell Titer-Blue (Promega, cat #G8082). Cell-Titer Blue (3 μL) was added to each well and incubated for 8 hrs at 37° C. The fluorescence signal from each well was read, with an excitation wavelength at 525/10 nm and an emission wavelength of 598/10 nm, using the Viewlux Imager.
(§3) The EC50 values for compounds were calculated by using a four-parameter logistic equation: y=A+((B−A)/(1+((C/x)^D))), where A and B denotes minimal and maximal % inhibition, respectively, C is the EC50, D is the hill slope and x represents compound concentration.
On the technique in general: In antiviral work, replicon cells carry a viral genome segment that copies itself.

In the next experiment the test system is HCV genotype 1b replicon. Put plainly: HCV replicon luciferase reporter assay, genotype 1b (LE_1b). The following applies: Hepatitis C virus, 72 h, HUH-7 cells, genotype 1b (Con1) replicon, 3 days incubation, Renilla luciferase. The experiment is classed as cell-based.
Excerpt: as §1, with “time. […]” for “time.”
as §2, §3

Structures are written as SMILES. Where two headings read alike, the source gives them in different places.

Consider `COc1ccc2nc(O[C@@H]3C[C@H]4C(=O)N[C@]5(C(=O)NS(=O)(=O)C6(C)CC6)C[C@H]5/C=C\CC[C@@H](C)C[C@@H](C)[C@H](NC(=O)OC(C)(C)C)C(=O)N4C3)c(C3CC3)nc2c1` [Compound 4303], for which the half-maximal effective concentration (EC50) lay within 1.01 to 5 nM in the experiment on HCV genotype 1a replicon (read-out: LE_1a (EC50, range)) and 1.01 to 5 nM in the experiment with HCV genotype 1b replicon (read-out: LE_1b (EC50, range)).
As to `[2H]C([2H])([2H])C1(S(=O)(=O)NC(=O)[C@@]23C[C@H]2/C=C\CC[C@@H](C)C[C@@H](CC)[C@H](NC(=O)OC(C)(C)C)C(=O)N2C[C@H](Oc4nccc5cc(OC)c(F)cc45)C[C@H]2C(=O)N3)CC1` [Compound 5507], the EC50 was in the range of 1.01 to 5 nM with HCV genotype 1a replicon (read-out: LE_1a (EC50, range)) and 0.51 to 1 nM in the experiment on HCV genotype 1b replicon (read-out: LE_1b (EC50, range)).
On to `C[C@@H]1CC/C=C\[C@@H]2C[C@@]2(C(=O)NS(=O)(=O)C2(C)CC2)NC(=O)[C@@H]2C[C@@H](Oc3nc4nccn4c4ccccc34)CN2C(=O)[C@@H](NC(=O)OC(C)(C)C)[C@H](C)C1` [Compound 6122, tert-butyl((2R,6S,7R,9R,13aS,14aR,16aS,Z)-2-(imidazo[1,2-a]quinazolin-5-yloxy)-7,9-dimethyl-14a-(((1-methylcyclopropyl)sulfonyl)carbamoyl)-5,16-dioxo-1,2,3,5,6,7,8,9,10,11,13a,14,14a,15,16,16a-hexadecahydrocyclopropa[e]pyrrolo[1,2-a][1,4]diazacyclopentadecin-6-yl)carbamate], for which the EC50 in the experiment with HCV genotype 1a replicon (read-out: LE_1a (EC50)) is 72 nM; with HCV genotype 1a replicon (read-out: LE_1a (EC50, range)), 35 to 145 nM; with HCV genotype 1b replicon (read-out: LE_1b (EC50)) it was 72.5 nM; in the experiment on HCV genotype 1b replicon (read-out: LE_1b (EC50, range)) it was 35 to 145 nM.
On to `CC[C@@H]1C[C@H](C)CC/C=C\[C@@H]2C[C@@]2(C(=O)NS(=O)(=O)C2(C)CC2)NC(=O)[C@@H]2C[C@@H](Oc3ncc(-c4nc(C(C)(C)C)cs4)c4cc(OC)ccc34)CN2C(=O)[C@H]1NC(=O)OC(C)(C)C` [Compound 4274, tert-butyl((2R,6S,7R,9R,13aS,14aR,16aS,Z)-2-((4-(4-(tert-butyl)thiazol-2-yl)-6-methoxyisoquinolin-1-yl)oxy)-7-ethyl-9-methyl-14a-(((1-methylcyclopropyl)sulfonyl)carbamoyl)-5,16-dioxo-1,2,3,5,6,7,8,9,10,11,13a,14,14a,15,16,16a-hexadecahydrocyclopropa[e]pyrrolo[1,2-a][1,4]diazacyclopentadecin-6-yl)carbamate], for which the 50% effective concentration (EC50) was 5.01 to 35 nM in the experiment on HCV genotype 1a replicon (read-out: LE_1a (EC50, range)) and 1.01 to 5 nM in the experiment on HCV genotype 1b replicon (read-out: LE_1b (EC50, range)).
On to `COc1ccc2c(O[C@@H]3C[C@H]4C(=O)N[C@]5(C(=O)NS(=O)(=O)C6(C)CC6)C[C@H]5/C=C\CC[C@@H](C)C[C@@H](C)[C@H](NC(=O)OC(C)(C)C(F)(F)F)C(=O)N4C3)cc(-n3ccc(C(C)C)n3)nc2c1` [Compound 4299], for which the EC50 in the experiment with HCV genotype 1a replicon (read-out: LE_1a (EC50, range)) was in the range of 0.51 to 1 nM; in the experiment on HCV genotype 1b replicon (read-out: LE_1b (EC50, range)) it was 0.51 to 1 nM.
As to `Cc1cn2c(n1)nc(O[C@@H]1C[C@H]3C(=O)N[C@]4(C(=O)NS(=O)(=O)C5(C)CC5)C[C@H]4/C=C\CC[C@@H](C)C[C@@H](C)[C@H](NC(=O)OC(C)(C)C(C)(F)F)C(=O)N3C1)c1cc(Cl)ccc12` [Compound 6137], the concentration for a half-maximal effect (EC50) in the experiment on HCV genotype 1a replicon (read-out: LE_1a (EC50, range)) was 1.01 to 5 nM; in the experiment with HCV genotype 1b replicon (read-out: LE_1b (EC50, range)), 0.51 to 1 nM.
Consider `CC[C@@H]1C[C@H](C)CC/C=C\[C@@H]2C[C@@]2(C(=O)NS(=O)(=O)C2CC2)NC(=O)[C@@H]2C[C@@H](Oc3ncc(C(=O)OC)c4cc(OC)ccc34)CN2C(=O)[C@H]1NC(=O)OC(C)(C)C(F)(F)F` [Compound 4286, methyl 1-(((2R,6S,7R,9R,13aS,14aR,16aS,Z)-14a-((cyclopropylsulfonyl)carbamoyl)-7-ethyl-9-methyl-5,16-dioxo-6-((((1,1,1-trifluoro-2-methylpropan-2-yl)oxy)carbonyl)amino)-1,2,3,5,6,7,8,9,10,11,13a,14,14a,15,16,16a-hexadecahydrocyclopropa[e]pyrrolo[1,2-a][1,4]diazacyclopentadecin-2-yl)oxy)-6-methoxyisoquinoline-4-carboxylate], for which the concentration giving a half-maximal response (EC50) with HCV genotype 1a replicon (read-out: LE_1a (EC50, range)) lay within 1.01 to 5 nM; with HCV genotype 1b replicon (read-out: LE_1b (EC50, range)) it was 0.51 to 1 nM.
On to `C[C@@H]1CC/C=C\[C@@H]2C[C@@]2(C(=O)NS(=O)(=O)C2(C)CC2)NC(=O)[C@@H]2C[C@@H](Oc3nc4cc(C(=O)OC(C)(C)C)ccc4nc3C(F)(F)F)CN2C(=O)[C@@H](NC(=O)OC(C)(C)C(C)(F)F)[C@H](C)C1` [Compound 7001, tert-butyl 3-(((2R,6S,7R,9R,13aS,14aR,16aS,Z)-6-((((3,3-difluoro-2-methylbutan-2-yl)oxy)carbonyl)amino)-7,9-dimethyl-14a-(((1-methylcyclopropyl)sulfonyl)carbamoyl)-5,16-dioxo-1,2,3,5,6,7,8,9,10,11,13a,14,14a,15,16,16a-hexadecahydrocyclopropa[e]pyrrolo[1,2-a][1,4]diazacyclopentadecin-2-yl)oxy)-2-(trifluoromethyl)quinoxaline-6-carboxylate], for which the 50% effective concentration (EC50) was 1.01 to 5 nM in the experiment on HCV genotype 1a replicon (read-out: LE_1a (EC50, range)) and 0.51 to 1 nM in the experiment with HCV genotype 1b replicon (read-out: LE_1b (EC50, range)).
On the same counts, the results for `CC[C@@H]1C[C@H](C)CC/C=C\[C@@H]2C[C@@]2(C(=O)NS(=O)(=O)C2(C)CC2)NC(=O)[C@@H]2C[C@@H](Oc3ncc(-c4cnco4)c4cc(OC)ccc34)CN2C(=O)[C@H]1NC(=O)OC(C)(C)C(F)(F)F` [Compound 4291] are 1.01 to 5 nM and 0.51 to 1 nM.
Turning to `CC[C@@H]1C[C@H](C)CC/C=C\[C@@H]2C[C@@]2(C(=O)NS(=O)(=O)C2CC2)NC(=O)[C@@H]2C[C@@H](Oc3nc4cccnc4nc3C(F)(F)F)CN2C(=O)[C@H]1NC(=O)OC(C)(C)C` [Compound 4329, tert-butyl((2R,6S,7R,9R,13aS,14aR,16aS,Z)-14a-((cyclopropylsulfonyl)carbamoyl)-7-ethyl-9-methyl-5,16-dioxo-2-((3-(trifluoromethyl)pyrido[2,3-b]pyrazin-2-yl)oxy)-1,2,3,5,6,7,8,9,10,11,13a,14,14a,15,16,16a-hexadecahydrocyclopropa[e]pyrrolo[1,2-a][1,4]diazacyclopentadecin-6-yl)carbamate], the half-maximal effective concentration (EC50) was in the range of 35 to 145 nM with HCV genotype 1a replicon (read-out: LE_1a (EC50, range)) and 35 to 145 nM in the experiment with HCV genotype 1b replicon (read-out: LE_1b (EC50, range)).
For the molecule `CC[C@@H]1C[C@H](C)CC/C=C\[C@@H]2C[C@@]2(C(=O)NS(=O)(=O)C2(C)CC2)NC(=O)[C@@H]2C[C@@H](Oc3cc(-n4ccnc4)c4ccc(OC)cc4n3)CN2C(=O)[C@H]1NC(=O)OC(C)(C)C(F)(F)F` [Compound 4282], the EC50 in the experiment with HCV genotype 1a replicon (read-out: LE_1a (EC50, range)) was 5.01 to 35 nM; in the experiment with HCV genotype 1b replicon (read-out: LE_1b (EC50, range)), 1.01 to 5 nM.
As to `CC[C@@H]1C[C@H](C)CC/C=C\[C@@H]2C[C@@]2(C(=O)NS(=O)(=O)C2CC2)NC(=O)[C@@H]2C[C@@H](Oc3nc4cc(OC)ccc4nc3C3CC3)CN2C(=O)[C@H]1NC(=O)OC(C)(C)C` [Compound 4307], the EC50 in the experiment with HCV genotype 1a replicon (read-out: LE_1a (EC50, range)) was 1.01 to 5 nM; in the experiment on HCV genotype 1b replicon (read-out: LE_1b (EC50, range)) it was 1.01 to 5 nM.

As usually defined, the EC50 is the concentration at which the effect is half-maximal.
